In US20140228366A1, “HETEROARYL-SUBSTITUTED PYRAZOLOPYRIDINES AND USE THEREOF AS SOLUBLE GUANYLATE CYCLASE STIMULATORS” (BAYER INTELLECTUAL PROPERTY GMBH, priority 2011, published 2014):

Experiments:
rabbit aorta rings = assay: Vasorelaxant effect in vitro (phenylephrine-contracted aorta rings); settings: Oryctolagus cuniculus, phenylephrine contraction, concentration reducing control contraction by 50%
Protocol: Rabbits are stunned by a blow to the neck and exsanguinated. The aorta is removed, freed from adhering tissue and divided into rings of a width of 1.5 mm. The rings are placed individually under an initial tension in 5 ml organ baths with Krebs-Henseleit solution which is at 37° C., is gassed with carbogen and has the following composition (in each case mM): sodium chloride: 119; potassium chloride: 4.8; calcium chloride dihydrate: 1; magnesium sulphate heptahydrate: 1.4; potassium dihydrogenphosphate: 1.2; sodium bicarbonate: 25; glucose: 10. The contractile force is determined with Statham UC2 cells, amplified and digitalized using A/D transducers (DAS-1802 HC, Keithley Instruments Munich), and recorded in parallel on linear recorders. To produce a contraction, phenylephrine is added to the bath cumulatively in increasing concentration. After several control cycles, the substance to be investigated is added in each further run in increasing dosage in each case, and the height of the contraction achieved is compared with the height of the contraction reached in the last preceding run. This is used to calculate the concentration needed to reduce the magnitude of the control value by 50% (IC50 value). The standard administration volume is 5 μl; the DMSO content in the bath solution corresponds to 0.1%.

[1] = target: T1, recombinant guanylate cyclase reporter cell line (Rattus norvegicus, UniProt P19686+P20595); assay: Effect on a recombinant guanylate cyclase reporter cell line; type: cell-based
T1 construct: expressed in transfected cells; host or cells: recombinant reporter cell line
T1 sequence (P19686 1-690): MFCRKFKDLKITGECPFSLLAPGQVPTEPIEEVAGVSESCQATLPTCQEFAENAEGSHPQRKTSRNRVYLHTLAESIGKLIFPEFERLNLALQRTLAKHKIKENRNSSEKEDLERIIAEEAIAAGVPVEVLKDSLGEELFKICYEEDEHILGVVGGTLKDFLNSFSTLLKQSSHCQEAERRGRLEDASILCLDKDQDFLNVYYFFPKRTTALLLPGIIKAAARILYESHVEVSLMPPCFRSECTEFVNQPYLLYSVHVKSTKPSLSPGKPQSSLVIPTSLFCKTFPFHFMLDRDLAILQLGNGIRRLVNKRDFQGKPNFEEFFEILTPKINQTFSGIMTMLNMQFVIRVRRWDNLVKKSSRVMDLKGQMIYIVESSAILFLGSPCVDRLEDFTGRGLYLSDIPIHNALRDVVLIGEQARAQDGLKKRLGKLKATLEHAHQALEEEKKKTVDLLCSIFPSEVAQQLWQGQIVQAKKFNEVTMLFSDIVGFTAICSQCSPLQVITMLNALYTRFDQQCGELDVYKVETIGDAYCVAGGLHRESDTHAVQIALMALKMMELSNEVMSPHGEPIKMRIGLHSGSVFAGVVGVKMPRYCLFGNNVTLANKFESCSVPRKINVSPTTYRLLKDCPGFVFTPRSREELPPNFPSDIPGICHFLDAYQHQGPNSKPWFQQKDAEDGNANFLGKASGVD
T1 sequence (P20595 1-619): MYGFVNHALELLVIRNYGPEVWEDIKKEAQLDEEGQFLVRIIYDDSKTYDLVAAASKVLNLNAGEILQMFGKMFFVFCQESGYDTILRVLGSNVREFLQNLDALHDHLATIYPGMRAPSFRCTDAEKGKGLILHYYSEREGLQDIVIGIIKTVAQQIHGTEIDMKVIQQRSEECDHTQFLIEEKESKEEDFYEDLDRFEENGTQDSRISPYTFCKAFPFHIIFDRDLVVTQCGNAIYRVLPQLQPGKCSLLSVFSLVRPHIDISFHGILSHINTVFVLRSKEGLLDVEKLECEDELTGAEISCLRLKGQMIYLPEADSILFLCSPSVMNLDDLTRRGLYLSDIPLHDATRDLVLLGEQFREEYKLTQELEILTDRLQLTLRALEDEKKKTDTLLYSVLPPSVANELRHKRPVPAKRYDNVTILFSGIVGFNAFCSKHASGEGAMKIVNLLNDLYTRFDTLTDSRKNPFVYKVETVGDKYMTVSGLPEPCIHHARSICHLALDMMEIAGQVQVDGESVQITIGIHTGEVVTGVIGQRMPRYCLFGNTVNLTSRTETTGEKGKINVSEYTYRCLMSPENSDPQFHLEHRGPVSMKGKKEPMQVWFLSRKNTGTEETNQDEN
Protocol: The cellular activity of the compounds according to the invention is determined using a recombinant guanylate cyclase reporter cell line, as described in F. Wunder et al., Anal. Biochem. 339, 104-112 (2005).

Structure (SMILES)	IC50 (rabbit aorta rings)	MEC (minimum effective concentration) [1]
CC1(C)C(=O)Nc2nc(-c3nn(Cc4ncccn4)c4ncc(F)cc34)nnc21 [Example 1, 3-[5-Fluoro-1-(pyrimidin-2-ylmethyl)-1H-pyrazolo[3,4-b]pyridin-3-yl]-7,7-dimethyl-5,7-dihydro-6H-pyrrolo[2,3-e][1,2,4]triazin-6-one]	1320 nM	10 µM
CC1(C)C(=O)Nc2nc(-c3nn(Cc4ncccc4F)c4ncc(F)cc34)nc(I)c21 [Example 4, 2-{5-Fluoro-1-[(3-fluoropyridin-2-yl)methyl]-1H-pyrazolo[3,4-b]pyridin-3-yl}-4-iodo-5,5-dimethyl-5,7-dihydro-6H-pyrrolo[2,3-d]pyrimidin-6-one]	–	0.3 µM
CC1(C)C(=O)Nc2nc(-c3nn(Cc4ncccc4F)c4ncc(F)cc34)nc(O)c21 [Example 5, 2-{5-Fluoro-1-[(3-fluoropyridin-2-yl)methyl]-1H-pyrazolo[3,4-b]pyridin-3-yl}-4-hydroxy-5,5-dimethyl-5,7-dihydro-6H-pyrrolo[2,3-d]pyrimidin-6-one]	627 nM	3 µM
CC1(C)C(=O)Nc2nc(-c3nn(Cc4c(F)cncc4F)c4ncc(F)cc34)nc(N)c21 [Example 7, 4-Amino-2-{1-[(3,5-difluoropyridin-4-yl)methyl]-5-fluoro-1H-pyrazolo[3,4-b]pyridin-3-yl}-5,5-dimethyl-5,7-dihydro-6H-pyrrolo[2,3-d]pyrimidin-6-one]	116 nM	0.3 µM
CC1(C)C(=O)Nc2nc(-c3nn(Cc4c(F)cncc4F)c4ncc(F)cc34)nc(O)c21 [Example 9, 2-{1-[(3,5-Difluoropyridin-4-yl)methyl]-5-fluoro-1H-pyrazolo[3,4-b]pyridin-3-yl}-4-hydroxy-5,5-dimethyl-5,7-dihydro-6H-pyrrolo[2,3-d]pyrimidin-6-one]	–	3.0 µM
CC1(C)C(=O)Nc2nc(-c3nn(Cc4c(F)cncc4F)c4ncc(F)cc34)ncc21 [Example 10, 2-[1-[(3,5-Difluoropyridin-4-yl)methyl]-5-fluoro-1H-pyrazolo[3,4-b]pyridin-3-yl]-5,5-dimethyl-5,7-dihydro-6H-pyrrolo[2,3-d]pyrimidin-6-one]	259 nM	1.0 µM
CC1(C)C(=O)Nc2nc(-c3nn(Cc4c(F)cncc4F)c4ncc(F)cc34)nnc21 [Example 11, 3-{1-[(3,5-Difluoropyridin-4-yl)methyl]-5-fluoro-1H-pyrazolo[3,4-b]pyridin-3-yl}-7,7-dimethyl-5,7-dihydro-6H-pyrrolo[2,3-e][1,2,4]triazin-6-one]	2540 nM	3.0 µM
CC1(C)C(=O)Nc2nc(-c3nn(Cc4ccncc4F)c4ncc(F)cc34)nc(N)c21 [Example 12, 4-Amino-2-[5-fluoro-1-[(3-fluoropyridin-4-yl)methyl]-1H-pyrazolo[3,4-b]pyridin-3-yl]-5,5-dimethyl-5,7-dihydro-6H-pyrrolo[2,3-d]pyrimidin-6-one]	121 nM	1.0 µM
CC1(C)C(=O)Nc2nc(-c3nn(Cc4ccncc4F)c4ncc(F)cc34)ncc21 [Example 14, 2-{5-Fluoro-1-[(3-fluoropyridin-4-yl)methyl]-1H-pyrazolo[3,4-b]pyridin-3-yl}-5,5-dimethyl-5,7-dihydro-6H-pyrrolo[2,3-d]pyrimidin-6-one]	207 nM	1.0 µM
CC1(C)C(=O)Nc2nc(-c3nn(Cc4ccncc4F)c4ncc(F)cc34)nnc21 [Example 15, 3-{5-Fluoro-1-[(3-fluoropyridin-4-yl)methyl]-1H-pyrazolo[3,4-b]pyridin-3-yl}-7,7-dimethyl-5,7-dihydro-6H-pyrrolo[2,3-e][1,2,4]triazin-6-one]	2230 nM	3.0 µM
CC1(C)C(=O)Nc2nc(-c3nn(Cc4ncc(F)cc4F)c4ncc(F)cc34)nnc21 [Example 16, 3-{1-[(3,5-Difluoropyridin-2-yl)methyl]-5-fluoro-1H-pyrazolo[3,4-b]pyridin-3-yl}-7,7-dimethyl-5,7-dihydro-6H-pyrrolo[2,3-e][1,2,4]triazin-6-one]	–	1.0 µM
CC1(C)C(=O)Nc2nc(-c3nn(Cc4cncnc4)c4ncc(F)cc34)ncc21 [Example 18, 2-[5-Fluoro-1-(pyrimidin-5-ylmethyl)-1H-pyrazolo[3,4-b]pyridin-3-yl]-5,5-dimethyl-5,7-dihydro-6H-pyrrolo[2,3-d]pyrimidin-6-one]	196 nM	0.1 µM
CC1(C)C(=O)Nc2nc(-c3nn(Cc4cncnc4)c4ncc(F)cc34)nnc21 [Example 19, 3-[5-Fluoro-1-(pyrimidin-5-ylmethyl)-1H-pyrazolo[3,4-b]pyridin-3-yl]-7,7-dimethyl-5,7-dihydro-6H-pyrrolo[2,3-e][1,2,4]triazin-6-one]	361 nM	0.1 µM
CC1(C)C(=O)Nc2nc(-c3nn(Cc4sccc4F)c4ncc(F)cc34)nnc21 [Example 20, 3-{5-Fluoro-1-[(3-fluoro-2-thienyl)methyl]-1H-pyrazolo[3,4-b]pyridin-3-yl}-7,7-dimethyl-5,7-dihydro-6H-pyrrolo[2,3-e][1,2,4]triazin-6-one]	–	0.01 µM
CC1(C)C(=O)Nc2nc(-c3nn(Cc4cncnc4)c4ncc(F)cc34)nc(N)c21 [Example 21, 4-Amino-2-[5-fluoro-1-(pyrimidin-5-ylmethyl)-1H-pyrazolo[3,4-b]pyridin-3-yl]-5,5-dimethyl-5,7-dihydro-6H-pyrrolo[2,3-d]pyrimidin-6-one]	99 nM	0.1 µM
